Active and inactive are the calls of the source. The calls are words filed in the database; no cut-off is given here.
Legend:
[1] = Metabolic stability in mouse hepatocytes at 3 uM incubated for 3 hrs by UPLC/Q-TOF MS analysis; assay type: ADME, cell-based, Hepatocyte
[2] = Cmax in ICR mouse at 20 mg/kg, po measured upto 24 hrs by LC-MS/MS analysis; assay type: ADME, organism-based; parameters: time < 24 hrs, dose 20 mg/kg, route po; details: in vivo
[3] = Metabolic stability in rat hepatocytes at 3 uM incubated for 3 hrs by UPLC/Q-TOF MS analysis; assay type: ADME, cell-based, Hepatocyte
MV4-11 [4] = experiment: In vivo antitumor activity against human MV4-11 cells xenografted in nu/nu mouse assessed as tumor volume at 20 mg/kg, po qd measured on day 1 (reference value: 154 +/- 53 mm3); assay type: functional; details: time 1 day
[5] = target: T1, Amine oxidase [flavin-containing] B (Homo sapiens, UniProt P27338); experiment: biochemical
T1 sequence (P27338 whole entry): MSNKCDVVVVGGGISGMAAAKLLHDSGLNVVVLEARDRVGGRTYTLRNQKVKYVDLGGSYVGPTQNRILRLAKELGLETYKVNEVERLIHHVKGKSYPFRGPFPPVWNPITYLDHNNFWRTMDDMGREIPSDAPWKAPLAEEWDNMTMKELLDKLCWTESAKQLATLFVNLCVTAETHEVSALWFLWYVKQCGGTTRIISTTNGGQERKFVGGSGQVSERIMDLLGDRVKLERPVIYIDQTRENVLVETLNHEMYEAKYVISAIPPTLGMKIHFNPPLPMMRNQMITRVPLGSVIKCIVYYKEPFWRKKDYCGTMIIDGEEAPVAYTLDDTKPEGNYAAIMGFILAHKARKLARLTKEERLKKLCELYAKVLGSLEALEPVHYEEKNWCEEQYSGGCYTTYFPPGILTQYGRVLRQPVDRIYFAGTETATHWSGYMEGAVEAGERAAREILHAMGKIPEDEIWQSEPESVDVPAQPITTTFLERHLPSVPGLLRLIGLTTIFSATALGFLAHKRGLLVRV
Description: Inhibition of human recombinant MAO-B expressed in baculovirus infected BTI insect cells using luminogenic MAO substrate incubated for 1 hr by luciferin-based luminescence assay

[6] = Metabolic stability in dog hepatocytes at 3 uM incubated for 3 hrs by UPLC/Q-TOF MS analysis; assay type: ADME, cell-based, Canis lupus familiaris, Hepatocyte
[7] = target: T2, Amine oxidase [flavin-containing] A (Homo sapiens, UniProt P21397); experiment: biochemical
T2 sequence (P21397 whole entry): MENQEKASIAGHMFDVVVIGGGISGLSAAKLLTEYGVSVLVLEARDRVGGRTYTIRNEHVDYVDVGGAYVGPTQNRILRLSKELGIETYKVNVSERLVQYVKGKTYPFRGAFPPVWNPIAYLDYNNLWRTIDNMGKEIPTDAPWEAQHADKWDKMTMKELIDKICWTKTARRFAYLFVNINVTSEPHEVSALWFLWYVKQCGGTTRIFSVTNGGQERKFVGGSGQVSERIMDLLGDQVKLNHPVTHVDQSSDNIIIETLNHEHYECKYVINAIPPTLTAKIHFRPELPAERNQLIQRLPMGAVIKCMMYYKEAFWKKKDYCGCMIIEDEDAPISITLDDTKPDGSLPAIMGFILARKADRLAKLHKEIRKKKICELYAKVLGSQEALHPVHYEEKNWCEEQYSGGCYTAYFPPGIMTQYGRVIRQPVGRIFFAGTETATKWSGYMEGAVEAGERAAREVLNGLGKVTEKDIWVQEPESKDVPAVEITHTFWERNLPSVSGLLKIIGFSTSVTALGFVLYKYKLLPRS
Description: Inhibition of human recombinant MAO-A expressed in baculovirus infected BTI insect cells using luminogenic MAO substrate incubated for 1 hr by luciferin-based luminescence assay

MV4-11 [8] = experiment: In vivo antitumor activity against human MV4-11 cells xenografted in nu/nu mouse assessed as T/C ratio at 10 mg/kg, po qd measured after 15 days relative to control; assay type: functional; details: time 15 day
[9] = Drug metabolism in monkey liver microsomes assessed as amino dealkylation of parent compound causing M1 metabolite formation at 3 uM incubated for 3 hrs by UPLC/Q-TOF MS analysis; assay type: ADME, Macaca mulatta, Microsome; details: rhesus monkey
[10] = Drug metabolism in monkey liver microsomes assessed as N-acetyl M2 metabolite formation at 3 uM incubated for 3 hrs by UPLC/Q-TOF MS analysis; assay type: ADME, Macaca mulatta, Microsome; details: rhesus monkey
[11] = Drug metabolism in human liver microsomes assessed as amino dealkylation of parent compound causing M1 metabolite formation at 3 uM incubated for 3 hrs by UPLC/Q-TOF MS analysis; assay type: ADME, Microsome
MV4-11 [12] = experiment: Activation of CD86 expression in human MV4-11 cells incubated for 24 hrs by qRT-PCR analysis; assay type: functional, cell-based; details: MV4-11, 24 h
MV4-11 [13] = experiment: Induction of differentiation of human MV4-11 cells assessed as morphological changes by measuring reduction in nuclear to cytoplasmic ratio at 2.5 uM incubated for 240 hrs by Wright-Giemsa staining based microscopy; assay type: functional, cell-based
MV4-11 [14] = experiment: In vivo antitumor activity against human MV4-11 cells xenografted in nu/nu mouse assessed as relative tumor volume at 20 mg/kg, po qd measured after 15 days (reference value: 6.85 +/- 1.84 ); assay type: functional; details: time 15 day
[15] = Half life in ICR mouse at 20 mg/kg, po measured upto 24 hrs by LC-MS/MS analysis; assay type: ADME, organism-based; details: in vivo
MV4-11 [16] = experiment: Induction of differentiation of human MV4-11 cells assessed as morphological changes by measuring segmented nucleus at 2.5 uM incubated for 240 hrs by Wright-Giemsa staining based microscopy; assay type: functional, cell-based
RPMI-8226 = experiment: Antiproliferative activity against human RPMI-8226 cells assessed as inhibition of cell growth incubated for 240 hrs by MTS assay; assay type: functional, cell-based; details: RPMI-8226, 240 h
MV4-11 [17] = experiment: In vivo antitumor activity against human MV4-11 cells xenografted in nu/nu mouse assessed as tumor volume at 10 mg/kg, po qd measured on day 15 (reference value: 959 +/- 111 mm3); assay type: functional; details: time 15 day
[18] = Drug metabolism in human liver microsomes assessed as N-acetyl M2 metabolite formation at 3 uM incubated for 3 hrs by UPLC/Q-TOF MS analysis; assay type: ADME, Microsome
MV4-11 [19] = experiment: In vivo antitumor activity against human MV4-11 cells xenografted in nu/nu mouse assessed as tumor volume at 20 mg/kg, po qd measured on day 15 (reference value: 959 +/- 111 mm3); assay type: functional; details: time 15 day
MV4-11 [20] = experiment: Antiproliferative activity against human MV4-11 cells assessed as inhibition of cell growth incubated for 240 hrs by MTS assay; assay type: functional, cell-based; details: MV4-11, 240 h
MV4-11 [21] = experiment: In vivo antitumor activity against human MV4-11 cells xenografted in nu/nu mouse assessed as tumor volume at 10 mg/kg, po qd measured on day 1 (reference value: 154 +/- 53 mm3); assay type: functional; details: time 1 day
[22] = AUC (0 to infinity) in ICR mouse at 20 mg/kg, po measured upto 24 hrs by LC-MS/MS analysis; assay type: ADME, organism-based; parameters: dose 20 mg/kg, time < 24 hrs, route po; details: in vivo
MV4-11 [23] = experiment: In vivo antitumor activity against human MV4-11 cells xenografted in nu/nu mouse assessed as relative tumor volume at 10 mg/kg, po qd measured after 15 days (reference value: 6.85 +/- 1.84 ); assay type: functional; details: time 15 day
MV4-11 [24] = experiment: In vivo antitumor activity against human MV4-11 cells xenografted in nu/nu mouse assessed as T/C ratio at 20 mg/kg,po qd measured after 15 days relative to control; assay type: functional; details: time 15 day

Compound: O=S(=O)(c1ccccc1)N1CCc2cc(C3CC3NCC3CCNCC3)ccc21 (stereo not given)
- Stability [1]: Stable
- Cmax [2]: 85.7 ng/mL
- Stability [3]: Stable
- Activity (MV4-11 [4]): 157 mm3
- IC50 [5]: > 100 µM
- Stability [6]: Stable
- IC50 [7]: > 100 µM
- Activity (MV4-11 [8]): 52.29%
- Drug metabolism [9]: Metabolite_Detected
- Drug metabolism [10]: Metabolite_Detected
- Drug metabolism [11]: Metabolite_Detected
- EC50 (MV4-11 [12]): 0.47 µM
- Activity (MV4-11 [13]): Active
- Activity (MV4-11 [14]): 2.12
- half-life [15]: 5.32 h
- Activity (MV4-11 [16]): Active
- IC50 (RPMI-8226): > 20 µM
- Activity (MV4-11 [17]): 522 mm3
- Drug metabolism [18]: Metabolite_Detected
- Activity (MV4-11 [19]): 334 mm3
- IC50 (MV4-11 [20]): 1.36 µM
- Activity (MV4-11 [21]): 156 mm3
- AUC [22]: 619 ng·h/mL
- Activity (MV4-11 [23]): 3.58
- Activity (MV4-11 [24]): 30.89%
